The source of these data is patent US20230065495A1, “MULTIPARTITE AND CIRCULARLY PERMUTED BETA-BARREL POLYPEPTIDES AND METHODS FOR THEIR USE” (University of Washington, priority 2020, published 2023).

The labels stand for the following.
B2: MBP-tagged split mFAP fragment m13 (β-strands 1-3 of mFAP2a) (designed binder, not shown: large carriers)
chain: SRAAQLLPGTWQATFTNEDGQTSQGQWHFQPRSPYTMDIVAQGTIS
modifications: also: MBP-tagged (side and linker not given here)
B5: MBP-tagged split mFAP fragment m48 (β-strands 4-8 of mFAP2a) (designed binder, not shown: large carriers)
chain: DGRPIVGYGKATVKTPDTLDIDITYPSLGNIKAQGQITMDSPTQFKWDATTKGENDFHGRLTGTLQRQE

Where “and” joins values, the source holds several entries; their conditions need not be identical. Equal values may be shown once. Marks after values point to notes of the source that are not given here. Ends that are not written are not given here.

The conditions of series [1]: cited from earlier work; for Extinction Coefficient / Reported Quantum Yield / λabs, peak absorbance wavelength / λem, peak emission wavelength / λex, peak excitation wavelength: previously reported value.
For series [2], the target named is T1, MBP-tagged split mFAP fragment m15 (β-strands 1-5 of mFAP2a).
T1 chain: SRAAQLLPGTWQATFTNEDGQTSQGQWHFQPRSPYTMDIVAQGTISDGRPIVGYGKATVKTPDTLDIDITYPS
Nature of the series: β-barrel self-complementation assay (fluorescence of DFHBI-1T). The protocol: (§1) To measure fluorescence intensities in complementation assays (FIG. 1b), fluorescence was measured on a Synergy Neo2 hybrid multi-mode reader (BioTek) in flat bottom, black polystyrene, non-binding surface 96-well half-area microplates (Corning 3686). Each split mFAP fragment covalently fused to maltose binding protein (MBP) was purified by large-scale protein purification in high salt Tev cleavage buffer⁹. In technical triplicate, 12.0 μL of each MBP-tagged split mFAP fragment was mixed to an equimolar concentration supplemented with 1.00 μL of 1.25 mM DFHBI-1T (Lucerna) at 25.0 μL final volumes per well. Fluorescence endpoints were measured using excitation wavelength λₑₓ=478 nm and emission wavelength λₑₘ=520 nm. In technical triplicate, background fluorescence endpoints of wells with identical chromophore concentrations lacking protein (substituted for equivalent volumes of high salt Tev cleavage buffer) were measured, and the mean fluorescence endpoints were subtracted from the mean fluorescence endpoints of samples containing protein (FIG. 1b).

In series [3] the target is B5. Nature of the series: split mFAP self-complementation, MBP-tagged fragments mixed equimolar with excess DFHBI-1T, fluorescence endpoint (n=3). The protocol:
as §1

Series [4] addresses T2, MBP-tagged split mFAP fragment m38 (β-strands 3-8 of mFAP2a).
T2 chain: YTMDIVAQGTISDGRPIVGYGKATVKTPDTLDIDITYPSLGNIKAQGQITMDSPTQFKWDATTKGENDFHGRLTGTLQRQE
Described as above. The protocol: as §1

In series [5] the target is T3, MBP-tagged split mFAP fragment m58 (β-strands 5-8 of mFAP2a).
T3 chain: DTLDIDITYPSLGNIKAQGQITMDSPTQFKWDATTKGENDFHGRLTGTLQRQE
The description is as above. The protocol:
as §1

The target in series [6] is B2. Nature of the series: β-barrel self-complementation assay (fluorescence of DFHBI-1T). The protocol:
as §1

In the case of `CC1=NC(=Cc2cc(F)c(O)c(F)c2)C(=O)N1C` [DFHBI, 3,5-difluoro-4-hydroxybenzylidene imidazolinone], the “Absolute Quantum Yield” value in series [1] (marked previously reported value) was 0.001^#. Besides, in series [1], the “Extinction Coefficient” value was 30,100^¶ M^−1, cm^−1 and 31,935^# M^−1, cm^−1; the “Reported Quantum Yield” value is on record as 0.0007^¶; the “λabs, peak absorbance wavelength” value is on record as 418^¶ nm; the “λem, peak emission wavelength” value is reported as 489^¶ nm. Also, in series [1], the “λex, peak excitation wavelength” value is given as 423^¶ nm.
`Cc1cc2cc3cc(C)c(N)cc3nc2cc1N.Cl` [Acridine Yellow G]: the “quantum yield value of reference dye” value in series [1] (in methanol) was 0.57.
With `CC1=N/C(=C\c2cc(F)c(O)c(F)c2)C(=O)N1CC(F)(F)F` [DFHBI-1T, (Z)-4-(3,5-difluoro-4-hydroxybenzylidene)-2-methyl-1-(2,2,2-trifluoroethyl)-1H-imidazol-5(4H)-one], in series [1], the “Extinction Coefficient” value is reported as 35,400^¶ M^−1, cm^−1; the “Reported Quantum Yield” value is reported as 0.00098^¶; the “λabs, peak absorbance wavelength” value is recorded as 422^¶ nm; the “λem, peak emission wavelength” value is listed as 495^¶ nm. For the same molecule, the “λex, peak excitation wavelength” value in series [1] is recorded as 426^¶ nm.

B1: MBP-tagged split mFAP fragment m68 (β-strands 6-8 of mFAP2a) (designed binder, not shown: large carriers)
chain: LGNIKAQGQITMDSPTQFKWDATTKGENDFHGRLTGTLQRQE
modifications: also: MBP tag fused, side and linker not given here
In the case of B1, the binding result in series [2] was “binds”.
In the case of B2, in series [3], the binding result is reported as “binds”.

B3: MBP-tagged split mFAP fragment m12 (β-strands 1-2 of mFAP2a) (designed binder, not shown: large carriers)
chain: SRAAQLLPGTWQATFTNEDGQTSQGQWHFQPRSP
modifications: also: MBP-tagged (side and linker not given here)
For the molecule B3, in series [4], the binding result is reported as “binds”.

B4: MBP-tagged split mFAP fragment m14 (β-strands 1-4 of mFAP2a) (designed binder, not shown: large carriers)
chain: SRAAQLLPGTWQATFTNEDGQTSQGQWHFQPRSPYTMDIVAQGTISDGRPIVGYGKATVKTP
As to B4, the binding result in series [5] is recorded as “binds”.
As to B5, the binding result in series [6] is recorded as “binds”.
